# Test results published in patent US5389621A, “Method of enhancing the anticoagulant effects of aspirin using salicylamide” (University of Medicine and Dentistry of New Jersey, priority 1994, dated 1995).
# Entries after “also recorded” stand apart in the source; their conditions may differ.
# Tests used:
# vascular cyclooxygenase = assay: 6-keto PG F1alpha production from thoracic aortic rings ex vivo; format: in vivo, male Sprague-Dawley rats; details: for Inhibition of PG I2 (6-keto PG F1alpha) / vascular cyclooxygenase: ASA 10 mg/kg or SAM 9 mg/kg, rat thoracic aortic rings ex vivo
# Procedure: The method used was a modification of that used by Dejana et al. (1981). Male Sprague-Dawley rats were randomly treated with either ASA (10 mg/kg), SAM (9 mg/kg), ASA/SAM (10/9 mg/kg), or isotonic saline. The rats were fasted overnight before administration of the treatments. Half an hour following treatment, the rats were exsanguinated by heart puncture under ether anesthesia and the thoracic aorta was immediately isolated, cleaned of adventitia, and flushed in situ with 5 ml of isotonic saline. The vessel was then removed and 2 rings (each was nearly 7 mg wet weight corresponding to 0.5 cm length) were cut from the middle part. The rings were immediately incubated in 160 μl of Krebs-Hanseleit buffer solution adjusted to pH 7.4 and containing AA (final concentration 4.3 mM) in polyethylene tubes. The tubes were incubated at 37° C. in a shaking water bath for 10 minutes. The reaction was terminated by the addition of 40 μl of EDTA/ASA solution and the tubes were centrifuged at 1800× g for 15 minutes at 4° C. 100 μl of the supernatant were used for the measurement of 6-keto PG F1alpha content as an indicator of its unstable precursor, PG I2. A specific radioimmunoassay (Amersham International) (vide infra) was employed.
# Radioimmunoassay Procedure for Measurement of Thromboxane B2 and 6-keto PG F1alpha
# The procedure described below is for thromboxane A2. A similar procedure was used for 6-keto PG F1alpha measurement.
# One way ANOVA followed by Scheffe multiple range test was employed for treatment comparisons. The accepted level of significance was p<0.05.
# platelet cyclooxygenase = assay: Thromboxane B2 synthesis by arachidonic acid-stimulated platelet-rich plasma in vitro; format: cell-based, male Sprague-Dawley rats; details: for Effect on TX B2 formation / platelet cyclooxygenase: arachidonic acid-stimulated PRP
# Source text: Was done manually by the method of Brecher and Conkite (1953) using phase contrast microscopy (Balplan) with a 40×annulus, 40×phase objective, and 10×ocular (total of 400×), and a special platelet counting chamber (American Optical Corp., Buffalo, N.Y.) and dilution with 1% ammonium oxalate. The platelet-rich plasma (PRP) was adjusted by dilution with platelet-poor plasma (PPP) to give a final count of 1×10^9 platelets/ml.
# Arachidonic acid (as the sodium salt, >99.0% pure) was obtained from Sigma Chemical Co. and a stock solution of 34.5 mM was prepared by dissolving in isotonic saline. 20 μl of the stock solution were added to 440 μl of PRP (400 μl of PRP and 20 or 40 μl of treatment solution ±20 μl of saline) to make a 23 fold dilution. The final concentration of AA in PRP was 1.5 mM.
# EDTA solution was prepared by adding 2 gm disodium EDTA and 0.8 gm NaCl and were adjusted to pH 7.4 with NaOH and made up to a final volume of 100 ml in distilled water. ASA solution was prepared by dissolving 30 mg in 10 ml of isotonic saline to make a solution of 3 mg/ml.
# 950 μl of EDTA solution were added to 50 μl of ASA solution and the mixture was vortexed. 40 μl of the mixture were pipetted in the experiment test tubes to stop further prostaglandin production.
# Platelet-rich plasma (PRP) was prepared from male Sprague-Dawley rats (300-325 gm). The blood was collected by heart puncture and added to 3.8% citrate solution, final volume 9:1, blood:citrate. The blood was centrifuged at 120×g (750 rpm) for 15 minutes at 4° C. to obtain PRP. The rest of the blood was spun at 1800×g (3000 rpm) for 10 minutes to get the PPP which was used later for dilution of the PRP to achieve the final desired platelet concentration of 1×10^9 platelets/ml. 400 μl of PRP, containing 4×10^8 platelets, were pipetted in polypropylene tubes and the following treatment groups were studied:
# 1--Baseline (-ve control) tubes: to measure the baseline production of Thromboxane B2 (TX B2) by platelets during the time of the experiment, 60 μl of saline were added and left for 10 minutes in a shaking water bath at 37° C.
# 2--Control (+ve control) tubes: 20 μl of arachidonic acid (AA) solution were added to achieve a final concentration of 1.5 mM and the tubes were incubated […].
# 3--ASA and/or SAM treatment tubes: 20 μl of ASA (final conc. 130 μg/ml), 20 μl of SAM solution (final conc. 40 μg/ml), 20 μl of ASA/SAM(L) solution (final conc. 130/40 μg/ml) or 20 μl of ASA/SAM(H) solution (final conc. 130/120 μg/ml) were added to PRP together with 20 μl of saline for 10 minutes, then 20 μl of AA solution were added for additional 10 minutes.
# 4--ASA/SA treatment: 20 μl of ASA/SA solution (final conc. 130/130 μg/ml) and 20 μl of saline were added to the tubes for 10 minutes before AA was added for further 10 minutes.
# 5--ASA/SA/SAM treatment: 20 μl of ASA/SA solution (130/130 μg/ml as final conc.) and 20 μl of […] in low (L) or high (H) concentrations (40 or 120 μg/ml, final conc.) were added simultaneously to PRP followed 10 minutes later by AA.
# 6--SAM/SA treatment: 20 μl of SAM solution (final conc. 40 μg/ml) and 20 μl of SA solution (final conc. 130 μg/ml) were added followed 10 minutes later by AA for additional 10 minutes.
# Also, the effect of SAM when administered first to the platelets followed 10 minutes later by ASA was studied to know whether the effect of SAM is time dependent or not.
# During the treatment, all the tubes were incubated at 37° C. in a shaking water bath. Ten minutes after the addition of AA, or saline (for the control tubes), the experiment was ended by addition of 40 μl of EDTA/ASA solution. The tubes were immediately centrifuged at 1800×g for 15 minutes at 4° C. to precipitate the platelets and 100 μl of the supernatant were obtained for estimation of their content of TX B2 using a specific radioimmunoassay (Amersham International) (vide infra).
# Radioimmunoassay Procedure for Measurement of Thromboxane B2 and 6-keto PG F1alpha […]
"Potentiation of ASA inhibitory effect on vascular cyclooxygenase (vascular cyclooxygenase; SAM with ASA, ex vivo)",SMILES,Inhibition of PG I2 (6-keto PG F1alpha) / vascular cyclooxygenase (vascular cyclooxygenase),Effect of ASA addition to SAM/SA on TX B2 (platelet cyclooxygenase),Effect on TX B2 formation / platelet cyclooxygenase (platelet cyclooxygenase),Reversal of SA effect by SAM (platelet cyclooxygenase; SAM 40 μg/ml with ASA/SA),Reversal of SA effect by SAM (platelet cyclooxygenase; SAM 120 μg/ml with ASA/SA),Effect of SAM on ASA inhibition of TX B2 synthesis (platelet cyclooxygenase; SAM 40 or 120 μg/ml coadministered with ASA),Effect on the aspirin-antagonistic effect of SA (platelet cyclooxygenase; platelet cyclooxygenase)
–,"CC(=O)Oc1ccccc1C(=O)O [ASA, acetylsalicylic acid]",inhibited PG I2,significant blocking of platelet cyclooxygenase,significant inhibition of TX B2 formation,–,–,–,–
significant potentiation,"NC(=O)c1ccccc1O [SAM, Salicylamide]","partially, but still significantly, block vascular cyclooxygenase activity",–,did not change TX B2 production compared to control,~ 60%,completely preempted SA effect,did not influence ASA inhibition of TX B2 synthesis; also recorded: did not alter ASA-induced inhibition of platelet cyclooxygenase,dose-dependently quench the aspirin-antagonistic effect of SA
